Reference: US11535598B2, “Histone deacetylases (HDACs) inhibitors” (ANNJI PHARMACEUTICAL CO., LTD., priority 2017, dated 2022)
Read-outs that look alike come from different tables or passages of the source.

Experiments:
Human HDAC6 = Human HDAC6 (Homo sapiens (Human), UniProt Q9UBN7); assay: HDAC enzymatic assay, HDAC6; format: biochemical; conditions: 10-dose IC50 mode with a 3-fold serial dilution; read-out: HDAC subtypes IC50 HDAC6
Procedure: (§1) The IC50 values for aforementioned compounds against HDACs were determined. HDAC 1 to 11 can be assayed by using acetylated AMC-labeled peptide substrate.
(§2) Human HDAC1 GenBank Accession No. NM_004964): Full length with C-terminal GST tag, MW=79.9 kDa, Human HDAC2 (GenBank Accession No. Q92769): Full length with C-terminal His tag, MW=60 kDa. Human HDAC3/NcoR2 (GenBank Accession No. […] for HDAC3, GenBank Accession No. NM_006312 for NcoR2): Complex of human HDAC3, full length with C-terminal His tag, MW=49.7 kDa, and human NCOR2, N-terminal GST tag, MW=39 kDa. Human HDAC6 (GenBank Accession No. BC069243): Full length with N-terminal GST tag, MW=159 kDa. Human HDAC8 (GenBank Accession No. NM018486): Full length, MW=42 kDa, expressed in an E. coli expression system.
(§3) Human HDAC1, Human HDAC2, Human HDAC3/NcoR2, Human HDAC6, Human HDAC10, and Human HDAC11 were all expressed by baculovirus expression system in Sf9 cells.
(§4) 50 μM HDAC substrate. 1% DMSO final. Incubation for 2 hours at 30° C.

HL60 = assay: Cell proliferation assay MTT, HL60; conditions: read-out: Cytotoxicity IC50 Leukemia HL60, 72 hr treated
Procedure: (§5) Cells were seeded in 96-well plates at a density of 5×10^3 cells per well and allowed to attach for 24 h before compound treatment. […] At end of the treatment period 72 h, 20 μl (5 mg/mL) 3-(4,5-dimethylthiazol-2-yl)-2,5-diphenyl-tetrazolium bromide (MTT) reagent was added each well. After 4 h incubation at 37° C., the supernatant was aspirated and the formazan crystals were dissolved in 100 μl of DMSO at 37° C. for 10 min with gentle agitation. The absorbance was measured at 570 nm using the Molecular Devices Microplate Reader. […] IC50 values were calculated from the relative viability values and concentrations by regression analysis.

MV4-11 = assay: Cell proliferation assay MTT, MV4-11
Procedure: as §5

A549 [1] = conditions: human, 72 h
Procedure: as §5

MOLM13 = assay: Cell proliferation assay MTT, MOLM13
Procedure: as §5

Human HDAC8 = Human HDAC8 (Homo sapiens (Human), UniProt Q9BY41); assay: HDAC enzymatic assay, HDAC8; format: biochemical; conditions: 10-dose IC50 mode with a 3-fold serial dilution; read-out: HDAC subtypes IC50 HDAC8
Procedure: as §1, §2, §4

PANC1 [2] = conditions: human, 72 h
Procedure: as §5

U87MG [3] = conditions: human, 72 h
Procedure: as §5

LNCap [4] = conditions: human, 72 h
Procedure: as §5

HepG2 [5] = conditions: human, 72 h
Procedure: as §5

in vitro [6] = conditions: human
Procedure: as §5

Human HDAC11 = Human HDAC11 (Homo sapiens (Human), UniProt Q96DB2); assay: HDAC enzymatic assay, HDAC11; format: biochemical; conditions: 10-dose IC50 mode with a 3-fold serial dilution; read-out: HDAC subtypes IC50 HDAC11
Procedure: as §1, §2, §3, §4

in vitro [7] = conditions: monkey
Procedure: as §5

Human HDAC1 = Human HDAC1 (Homo sapiens (Human), UniProt Q13547); assay: HDAC enzymatic assay, HDAC1; format: biochemical; conditions: 10-dose IC50 mode with a 3-fold serial dilution; read-out: HDAC subtypes IC50 HDAC1
Procedure: as §1, §2, §3, §4

A549 [8] = assay: Cell proliferation assay MTT, A549; conditions: read-out: Cytotoxicity IC50 Lung A549, 72 hr treated
Procedure: as §5

PANC1 [9] = assay: Cell proliferation assay MTT, PANC1; conditions: read-out: Cytotoxicity IC50 Pancreas PANC1, 72 hr treated
Procedure: as §5

U87MG [10] = assay: Cell proliferation assay MTT, U87MG; conditions: read-out: Cytotoxicity IC50 Glioblastoma U87MG, 72 hr treated
Procedure: as §5

HepG2 [11] = assay: Cell proliferation assay MTT, HepG2; conditions: read-out: Cytotoxicity IC50 Liver HepG2, 72 hr treated
Procedure: as §5

LNCap [12] = assay: Cell proliferation assay MTT, LNCaP; conditions: read-out: Cytotoxicity IC50 Prostate LNCap, 72 hr treated
Procedure: as §5

[13] = human, MV4-11 leukemia cells, 72 h
[14] = human, MOLM13 leukemia cells, 72 h

Sequence of Human HDAC6 (Q9UBN7 whole entry): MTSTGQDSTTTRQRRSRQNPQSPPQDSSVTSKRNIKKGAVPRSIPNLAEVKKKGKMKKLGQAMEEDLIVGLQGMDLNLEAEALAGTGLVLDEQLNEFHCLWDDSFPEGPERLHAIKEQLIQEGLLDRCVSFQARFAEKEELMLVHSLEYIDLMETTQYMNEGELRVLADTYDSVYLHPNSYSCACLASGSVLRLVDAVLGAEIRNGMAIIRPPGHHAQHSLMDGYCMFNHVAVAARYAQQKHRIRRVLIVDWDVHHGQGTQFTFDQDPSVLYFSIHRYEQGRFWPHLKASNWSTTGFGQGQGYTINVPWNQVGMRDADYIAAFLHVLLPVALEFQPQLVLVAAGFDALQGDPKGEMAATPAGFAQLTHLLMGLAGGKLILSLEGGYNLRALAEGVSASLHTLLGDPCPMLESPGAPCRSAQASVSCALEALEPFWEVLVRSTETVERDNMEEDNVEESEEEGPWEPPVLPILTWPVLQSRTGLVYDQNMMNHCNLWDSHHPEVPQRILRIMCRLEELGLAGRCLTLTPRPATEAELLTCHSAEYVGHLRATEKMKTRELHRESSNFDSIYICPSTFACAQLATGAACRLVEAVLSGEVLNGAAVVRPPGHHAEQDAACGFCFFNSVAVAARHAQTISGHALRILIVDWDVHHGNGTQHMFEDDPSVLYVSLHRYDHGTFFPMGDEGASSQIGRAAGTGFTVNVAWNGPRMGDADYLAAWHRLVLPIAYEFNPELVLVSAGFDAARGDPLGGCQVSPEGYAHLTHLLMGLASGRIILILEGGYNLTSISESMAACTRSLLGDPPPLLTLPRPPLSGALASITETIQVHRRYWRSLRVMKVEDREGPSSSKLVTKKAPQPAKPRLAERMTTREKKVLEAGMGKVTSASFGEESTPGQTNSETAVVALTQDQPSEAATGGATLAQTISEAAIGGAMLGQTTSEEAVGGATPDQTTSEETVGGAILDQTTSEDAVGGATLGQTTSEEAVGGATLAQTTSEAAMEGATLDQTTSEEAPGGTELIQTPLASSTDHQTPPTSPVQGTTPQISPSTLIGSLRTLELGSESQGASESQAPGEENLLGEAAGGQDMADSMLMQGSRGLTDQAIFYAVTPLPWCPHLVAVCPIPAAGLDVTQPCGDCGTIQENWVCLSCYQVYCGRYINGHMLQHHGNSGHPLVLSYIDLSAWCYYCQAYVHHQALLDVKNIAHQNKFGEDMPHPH
Sequence of Human HDAC8 (Q9BY41 whole entry): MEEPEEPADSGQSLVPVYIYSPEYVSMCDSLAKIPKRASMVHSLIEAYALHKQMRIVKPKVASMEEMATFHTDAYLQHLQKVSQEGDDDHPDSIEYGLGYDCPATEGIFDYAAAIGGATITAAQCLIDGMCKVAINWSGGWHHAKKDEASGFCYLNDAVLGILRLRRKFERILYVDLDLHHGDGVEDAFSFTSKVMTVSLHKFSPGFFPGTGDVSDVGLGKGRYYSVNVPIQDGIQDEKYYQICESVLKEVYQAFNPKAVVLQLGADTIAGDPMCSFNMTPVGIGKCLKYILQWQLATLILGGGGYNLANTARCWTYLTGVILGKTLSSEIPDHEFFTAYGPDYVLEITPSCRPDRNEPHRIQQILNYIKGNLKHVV
Sequence of Human HDAC11 (Q96DB2 whole entry): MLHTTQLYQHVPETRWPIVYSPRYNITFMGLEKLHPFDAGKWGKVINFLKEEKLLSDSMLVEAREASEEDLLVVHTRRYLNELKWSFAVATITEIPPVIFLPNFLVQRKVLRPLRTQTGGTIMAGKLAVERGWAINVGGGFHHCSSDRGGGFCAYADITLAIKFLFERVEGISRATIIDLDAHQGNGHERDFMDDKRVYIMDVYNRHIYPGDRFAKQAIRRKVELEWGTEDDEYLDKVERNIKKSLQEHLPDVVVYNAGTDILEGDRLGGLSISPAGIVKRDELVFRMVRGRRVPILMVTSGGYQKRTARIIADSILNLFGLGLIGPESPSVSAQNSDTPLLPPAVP
Sequence of Human HDAC1 (Q13547 whole entry): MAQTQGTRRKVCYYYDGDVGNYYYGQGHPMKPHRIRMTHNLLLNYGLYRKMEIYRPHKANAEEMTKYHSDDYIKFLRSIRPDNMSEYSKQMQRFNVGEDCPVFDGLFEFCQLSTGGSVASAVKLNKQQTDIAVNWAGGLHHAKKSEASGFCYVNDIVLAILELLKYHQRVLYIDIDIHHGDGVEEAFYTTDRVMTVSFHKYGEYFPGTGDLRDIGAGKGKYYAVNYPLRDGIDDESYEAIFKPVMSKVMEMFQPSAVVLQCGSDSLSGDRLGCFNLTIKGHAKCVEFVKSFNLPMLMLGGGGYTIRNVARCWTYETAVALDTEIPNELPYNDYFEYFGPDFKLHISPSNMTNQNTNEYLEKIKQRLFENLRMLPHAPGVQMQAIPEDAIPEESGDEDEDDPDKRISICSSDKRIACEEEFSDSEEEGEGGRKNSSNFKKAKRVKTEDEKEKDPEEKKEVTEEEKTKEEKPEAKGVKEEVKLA

Compound | IC50 (Human HDAC6) | IC50 (HL60) | IC50 (MV4-11; [13]) | IC50 (A549 [1]) | IC50 (MOLM13; [14]) | IC50 (Human HDAC8) | IC50 (PANC1 [2]) | IC50 (U87MG [3]) | IC50 (LNCap [4]) | IC50 (HepG2 [5]) | IC50 at 72 h (in vitro [6]) | IC50 (Human HDAC11) | IC50 at 72 h (in vitro [7]) | IC50 (Human HDAC1) | also measured
O=C(NO)c1ccc(Cn2c(=O)n(CCc3ccccc3)c(=O)c3ccc(O)cc32)cc1 [Compound 4, N-hydroxy-4-((7-hydroxy-2,4-dioxo-3-phenethyl-3,4-dihydroquinazolin-1(2H)-yl)methyl)benzamide] | 0.028 µM | 0.67 ± 0.09 µM | 0.75 ± 0.11 µM | 8.04 ± 0.28 µM | 0.81 ± 0.09 µM | 2.75 µM | 6.54 ± 0.11 µM | 4.28 ± 0.67 µM | 2.97 ± 0.22 µM | 6.12 ± 0.33 µM | 147.1 ± 0.51 µM | 5.5 µM | 156.4 ± 0.42 µM | 8.28 µM | –
O=C(NO)c1ccc(Cn2c(=O)n(CCc3ccccc3)c(=O)c3ccc(Cl)cc32)cc1 [Compound 8, 4-((7-chloro-2,4-dioxo-3-phenethyl-3,4-dihydroquinazolin-1(2H)-yl)methyl)-N-hydroxybenzamide] | 0.021 µM | 0.44 ± 0.04 µM | 0.37 ± 0.02 µM | 2.28 ± 0.27 µM | 0.48 ± 0.08 µM | 1.64 µM | 3.52 ± 0.09 µM | 2.1 ± 0.06 µM | 1.07 ± 0.14 µM | 2.74 ± 0.29 µM | 75.79 ± 0.12 µM | – | 85.74 ± 0.17 µM | 9.54 µM | –
O=C(NO)c1ccc(Cn2c(=O)n(CCc3ccccc3)c(=O)c3cc(Cl)ccc32)cc1 [Compound 9, 4-((6-chloro-2,4-dioxo-3-phenethyl-3,4-dihydroquinazolin-1(2H)-yl)methyl)-N-hydroxybenzamide] | 0.035 µM | 2.71 ± 0.05 µM | – | – | – | – | – | – | – | – | – | – | – | 18.9 µM | IC50 (A549 [8]): 2.45 ± 0.51 µM; IC50 (MV4-11; read-out: Cytotoxicity IC50 Leukemia MV4-11, MTT assay, 72 hr treated): 2.78 ± 0.03 µM; IC50 (MOLM13; read-out: Cytotoxicity IC50 Leukemia MOLM13, MTT assay, 72 hr treated): 2.82 ± 0.07 µM; IC50 (PANC1 [9]): 4.05 ± 0.12 µM; IC50 (U87MG [10]): 2.26 ± 0.13 µM; IC50 at 72 h (in vitro [6]; FHs173We normal cells): 70.34 ± 0.12 µM; IC50 at 72 h (in vitro [7]; Vero normal cells): 77.51 ± 0.14 µM; IC50 (HepG2 [11]): 2.03 ± 0.47 µM; IC50 (LNCap [12]): 1.01 ± 0.11 µM
O=C(NO)c1ccc(Cn2c(=O)n(CCc3ccc(F)cc3)c(=O)c3ccccc32)cc1 [Compound 14, 4-((3-(4-fluorophenethyl)-2,4-dioxo-3,4-dihydroquinazolin-1(2H)-yl)methyl)-N-hydroxybenzamide] | 0.023 µM | 1.37 ± 0.07 µM | 1.77 ± 0.05 µM | 6.35 ± 0.11 µM | 1.62 ± 0.09 µM | 1.05 µM | > 10 µM | 6.31 ± 0.63 µM | 4.25 ± 0.21 µM | 6.82 ± 0.12 µM | 83.81 ± 0.19 µM | 14.7 µM | 116 ± 0.23 µM | 10.8 µM | –
O=C(Cc1ccc(Cn2c(=O)n(CCc3ccccc3)c(=O)c3ccccc32)cc1)NO [Compound 16, 2-(4-((2,4-dioxo-3-phenethyl-3,4-dihydroquinazolin-1(2H)-yl)methyl)phenyl)-N-hydroxyacetamide] | – | 2.77 ± 0.04 µM | 3.04 ± 0.08 µM | 7.07 ± 0.42 µM | 3.29 ± 0.16 µM | – | 8.73 ± 0.24 µM | 6.28 ± 0.12 µM | 6.05 ± 0.31 µM | 6.99 ± 1.07 µM | 163.2 ± 0.27 µM | – | 160.3 ± 0.23 µM | – | –
O=C(NO)c1ccc(Cn2c(=O)n(CCc3ccccc3)c(=O)c3cc(F)ccc32)cc1 [Compound 17, 4-((6-fluoro-2,4-dioxo-3-phenethyl-3,4-dihydroquinazolin-1(2H)-yl)methyl)-N-hydroxybenzamide] | 0.057 µM | 2.37 ± 0.11 µM | 3.13 ± 0.09 µM | 8.96 ± 0.17 µM | 356 ± 0.09 µM | 1.16 µM | 8.47 ± 0.04 µM | 6.13 ± 0.78 µM | 5.74 ± 0.51 µM | 6.64 ± 0.92 µM | 100.5 ± 0.37 µM | 16.7 µM | 123.2 ± 0.33 µM | 13.4 µM | –
O=C(Cc1ccc(Cn2c(=O)n(CCc3ccccc3)c(=O)c3ccccc32)c(F)c1)NO [Compound 19, 2-(4-((2,4-dioxo-3-phenethyl-3,4-dihydroquinazolin-1(2H)-yl)methyl)-3-fluorophenyl)-N-hydroxyacetamide] | – | 1.68 ± 0.09 µM | 1.87 ± 0.03 µM | 2.98 ± 0.12 µM | 1.74 ± 0.08 µM | – | 4.29 ± 0.08 µM | 2.64 ± 0.04 µM | 1.87 ± 0.18 µM | 2.75 ± 0.02 µM | 32.7 ± 0.03 µM | – | 37.82 ± 0.03 µM | – | –
Cc1ccc2c(=O)n(CCc3ccccc3)c(=O)n(Cc3ccc(C(=O)NO)cc3)c2c1 [Compound 22, N-hydroxy-4-((7-methyl-2,4-dioxo-3-phenethyl-3,4-dihydroquinazolin-1(2H)-yl)methyl)benzamide] | 0.17 µM | 1.46 ± 0.08 µM | 1.64 ± 0.07 µM | 7.44 ± 0.12 µM | 1.77 ± 0.05 µM | 2.52 µM | 8.73 ± 0.71 µM | 5.68 ± 0.19 µM | 5.38 ± 0.41 µM | 6.82 ± 0.44 µM | 135.1 ± 0.39 µM | 52.1 µM | 127.4 ± 0.28 µM | 10.9 µM | –
N#Cc1ccc2c(=O)n(CCc3ccccc3)c(=O)n(Cc3ccc(CC(=O)NO)cc3)c2c1 [Compound 23, 2-(4-((7-cyano-2,4-dioxo-3-phenethyl-3,4-dihydroquinazolin-1(2H)-yl)methyl)phenyl)-N-hydroxyacetamide] | – | 1.25 ± 0.08 µM | 1.19 ± 0.07 µM | 4.21 ± 0.03 µM | 2.32 ± 0.07 µM | – | 5.12 ± 0.11 µM | 4.12 ± 0.06 µM | 4.05 ± 0.07 µM | 4.24 ± 0.03 µM | 92.11 ± 0.69 µM | – | 95.27 ± 0.58 µM | – | –
O=C(NO)c1ccc(Cn2c(=O)n(CCc3cccc(F)c3)c(=O)c3ccccc32)cc1 [Compound 26, 4-((3-(3-fluorophenethyl)-2,4-dioxo-3,4-dihydroquinazolin-1(2H)-yl)methyl)-N-hydroxybenzamide] | 0.01 µM | 3.12 ± 0.08 µM | 3.71 ± 0.11 µM | 4.58 ± 0.21 µM | 4.01 ± 0.06 µM | 0.428 µM | 5.03 ± 0.19 µM | 3.77 ± 0.25 µM | 0.96 ± 0.02 µM | 4.03 ± 0.11 µM | 84.34 ± 0.73 µM | 10.7 µM | 93.26 ± 0.25 µM | 13.2 µM | –
